According to patent US20240310360A1, “METHOD OF […] RESPONSE OF CELL GROUP TO TEST SUBSTANCE” (CANON KABUSHIKI KAISHA, priority 2023, published 2024):
Read-outs that look alike come from different tables or passages of the source.

Tests used:
[1] = system: PBMCs; conditions: PBMCs used in Example 1; confirmed in advance by the manufacturer; cited from earlier work
[2] = system: PBMCs; experiment: Autofluorescence imaging FAD/NADH ratio of PBMCs after antigen stimulation (Example 2); format: cell-based; conditions: peptide solution 10 nM, PBMCs without preculturing
Experimental: PBMCs having reactivity to a test substance that differs from the reactivity in Example 1 were used here. The PBMCs used here were manufactured by Cellular Technology Limited, and thawed by following a manual provided by the manufacturer. Unlike Example 1, preculturing was skipped and the PBMCs were immediately presented to a test for examining reactivity to a test substance.
The thawed PBMCs were suspended in the CTL-Test Medium at a cell concentration of 7.2×10^6 cells/mL, and 250 μL each was seeded in a 24-well plate. As the test substance, a peptide solution manufactured by Cellular Technology Limited, specifically, CMV pp65 (495-503) Peptide (having a peptide concentration of 10 nM) was used, and 250 μL of this peptide solution was added to each of the wells containing the cells.
As a control cell group to which no test substances were added, cells to which 250 μL each of CTL-Test Medium was added instead of a peptide solution were used. After antigen stimulation, the cells were left to stand for 1 hour to 24 hours in a 5% CO2 incubator. From each well, an entire amount of cell suspension solution was collected and subjected to 5 minutes of centrifugation at 300 G. After the centrifugation, a supernatant was removed and cell pellets were suspended in 1,000 μL of PBS. Further, the resultant cell suspension solution was diluted 5 times with the PBS. Then, 100 μL of the diluted cell suspension solution was seeded onto a cover glass part (having a diameter of 16 mm) of a 35-mm glass bottom dish, and was used for bright field observation and autofluorescence observation.
The subsequent bright-field image acquisition, autofluorescence image acquisition, extraction and analysis of the color information of the autofluorescence images were performed by the same methods as the methods in Example 1.

[3] = system: PBMCs; conditions: PBMCs used in Example 2; confirmed in advance by the manufacturer; cited from earlier work

For “CMV pp65 (495-503) Peptide: peptide solution manufactured by Cellular Technology Limited; peptide that binds directly to an MHC (NLVPMVATV; UniProt P06725 495-503, looked up, fragment)”, the “reactivity of the PBMCs to the peptide (ELISpot test)” value [1] is given as “react weakly”, the “drop in FAD/NADH ratio compared to PBMCs with no test substance added” value ([2]; 1 hour of stimulation) is given as “reproduced” and the “drop in FAD/NADH ratio compared to PBMCs with no test substance added” value ([2]; 4 hours after stimulation) is given as “hardly observed”. The “drop in FAD/NADH ratio compared to PBMCs with no test substance added” value ([2]; period from 4 hours to 24 hours after stimulation) was “substantially no drop” and the “reactivity of the PBMCs to the peptide (ELISpot test)” value [3] was “react strongly”.
